Data as given in PubChem BioAssay (NCI).
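Tested at 5 concentrations; 48 h exposure; 96-well plates; endpoints linearly interpolated, else capped at highest concentration. TGI: total growth inhibition.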

What was measured:
Assay in all cases: NCI-60 cell line screen, 48 h
[1] = tested on: SK-MEL-28 melanoma
[2] = tested on: HS 578T breast
[3] = tested on: SK-MEL-2 melanoma
[4] = tested on: OVCAR-3 ovarian
[5] = tested on: MOLT-4 leukemia
[6] = tested on: SF-268 CNS
[7] = tested on: K-562 leukemia
[8] = tested on: HCT-116 colon
[9] = tested on: OVCAR-4 ovarian
[10] = tested on: SN12C renal
[11] = tested on: SF-295 CNS
[12] = tested on: MALME-3M melanoma
[13] = tested on: UO-31 renal
[14] = tested on: SNB-19 CNS
[15] = tested on: A549 NSCLC
[16] = tested on: OVCAR-5 ovarian
[17] = tested on: TK-10 renal
[18] = tested on: HL-60(TB) leukemia
[19] = tested on: NCI-H23 lung
[20] = tested on: UACC-62 melanoma
[21] = tested on: MDA-MB-231 breast
[22] = tested on: SW-620 colon
[23] = tested on: RPMI-8226 leukemia
[24] = tested on: EKVX NSCLC
[25] = tested on: HT29 colon
[26] = tested on: LOX IMVI melanoma
[27] = tested on: CCRF-CEM leukemia
[28] = tested on: HOP-92 NSCLC
[29] = tested on: M14 melanoma
[30] = tested on: UACC-257 melanoma
[31] = tested on: KM12 colon
[32] = tested on: NCI-H226 lung
[33] = tested on: DU-145 prostate
[34] = tested on: SK-MEL-5 melanoma
[35] = tested on: SNB-75 CNS
[36] = tested on: OVCAR-8 ovarian
[37] = tested on: 786-0 renal
[38] = tested on: HOP-62 NSCLC
[39] = tested on: HCT-15 colon
[40] = tested on: MDA-N
[41] = tested on: ACHN renal
[42] = tested on: NCI-H522 lung
[43] = tested on: SK-OV-3 ovarian
[44] = tested on: U251 CNS
[45] = tested on: MCF7 breast
[46] = tested on: SR leukemia
[47] = tested on: NCI/ADR-RES ovarian
[48] = tested on: COLO 205 colon
[49] = tested on: IGROV1 ovarian
[50] = tested on: NCI-H460 lung
[51] = tested on: MDA-MB-435
[52] = tested on: T-47D breast
[53] = tested on: PC-3 prostate
[54] = tested on: HCC-2998 colon
[55] = tested on: RXF 393 renal
[56] = tested on: BT-549 breast

C=CC1(c2ccc3ccccc3c2)OCC(CC)O1 (configuration not stated)
TGI [1]: > 100 µM
TGI [2]: 77 µM
TGI [3]: 43.9 µM
TGI [4]: > 100 µM
TGI [5]: 87.9 µM
TGI [6]: > 100 µM
TGI [7]: 85.1 µM
TGI [8]: > 100 µM
TGI [9]: > 100 µM
TGI [10]: > 100 µM
TGI [11]: > 100 µM
TGI [12]: 93.2 µM
TGI [13]: > 100 µM
TGI [14]: > 100 µM
TGI [15]: > 100 µM
TGI [16]: > 100 µM
TGI [17]: > 100 µM
TGI [18]: 23.3 µM
TGI [19]: 96.2 µM
TGI [20]: 88.3 µM
TGI [21]: 0.469 µM
TGI [22]: > 100 µM
TGI [23]: > 100 µM
TGI [24]: > 100 µM
TGI [25]: 91.2 µM
TGI [26]: 44.3 µM
TGI [27]: 73.7 µM
TGI [28]: 75.2 µM
TGI [29]: > 100 µM
TGI [30]: > 100 µM
TGI [31]: > 100 µM
TGI [32]: 81.4 µM
TGI [33]: > 100 µM
TGI [34]: > 100 µM
TGI [35]: > 100 µM
TGI [36]: > 100 µM
TGI [37]: > 100 µM
TGI [38]: 2.48 µM
TGI [39]: > 100 µM
TGI [40]: > 100 µM
TGI [41]: > 100 µM
TGI [42]: > 100 µM
TGI [43]: > 100 µM
TGI [44]: > 100 µM
TGI [45]: > 100 µM
TGI [46]: 61.4 µM
TGI [47]: > 100 µM
TGI [48]: > 100 µM
TGI [49]: > 100 µM
TGI [50]: > 100 µM
TGI [51]: > 100 µM
TGI [52]: > 100 µM
TGI [53]: > 100 µM
TGI [54]: > 100 µM
TGI [55]: > 100 µM

CC(=Nc1ccc(Cl)c(Cl)c1)c1ccncc1
TGI [1]: > 100 µM
TGI [2]: > 100 µM
TGI [4]: > 100 µM
TGI [5]: > 100 µM
TGI [6]: > 100 µM
TGI [7]: > 100 µM
TGI [8]: > 100 µM
TGI [9]: > 100 µM
TGI [10]: > 100 µM
TGI [11]: > 100 µM
TGI [14]: > 100 µM
TGI [17]: > 100 µM
TGI [19]: > 100 µM
TGI [20]: > 100 µM
TGI [21]: > 100 µM
TGI [22]: > 100 µM
TGI [25]: > 100 µM
TGI [26]: > 100 µM
TGI [27]: > 100 µM
TGI [28]: > 100 µM
TGI [29]: > 100 µM
TGI [31]: > 100 µM
TGI [32]: > 100 µM
TGI [56]: > 100 µM
TGI [35]: > 100 µM
TGI [36]: > 100 µM
TGI [37]: > 100 µM
TGI [38]: > 100 µM
TGI [40]: > 100 µM
TGI [42]: > 100 µM
TGI [43]: > 100 µM
TGI [44]: > 100 µM
TGI [47]: > 100 µM
TGI [48]: > 100 µM
TGI [50]: > 100 µM
TGI [53]: > 100 µM
TGI [55]: > 100 µM
